Data from the NIST ThermoML archive (doi:10.1021/je900722m).

Experiment: xn = mol fraction of the nth substance listed
Details: 101 kPa, Liquid

CC(C)CO [2-methyl-1-propanol] + CCCCO
Details | mass density, 303.15 K [kg/m3] | mass density, 308.15 K [kg/m3] | mass density, 313.15 K [kg/m3] | mass density, 318.15 K [kg/m3] | mass density, 323.15 K [kg/m3] | viscosity, 303.15 K [mPa·s] | viscosity, 308.15 K [mPa·s] | viscosity, 313.15 K [mPa·s] | viscosity, 318.15 K [mPa·s] | viscosity, 323.15 K [mPa·s]
x2 = 0.101 | 794.896 | 790.969 | 786.977 | 782.93 | 778.816 | 3.447 | 2.987 | 2.591 | 2.236 | 1.964
x2 = 0.2029 | 795.74 | 791.819 | 787.84 | 783.806 | 779.704 | 3.443 | 2.983 | 2.587 | 2.234 | 1.958
x2 = 0.3008 | 796.558 | 792.643 | 788.67 | 784.646 | 780.558 | 3.389 | 2.939 | 2.562 | 2.219 | 1.951
x2 = 0.4 | 797.382 | 793.476 | 789.511 | 785.496 | 781.419 | 3.313 | 2.871 | 2.511 | 2.191 | 1.931
x2 = 0.5 | 798.209 | 794.307 | 790.349 | 786.344 | 782.279 | 3.237 | 2.804 | 2.462 | 2.158 | –
x2 = 0.5999 | 799.026 | 795.132 | 791.184 | 787.188 | – | 3.166 | 2.752 | 2.424 | 2.129 | –
x2 = 0.6999 | 799.838 | 795.953 | 792.012 | 788.027 | – | 3.102 | 2.708 | 2.391 | 2.111 | –
x2 = 0.7993 | 800.635 | 796.757 | 792.829 | 788.855 | – | 3.04 | 2.669 | 2.363 | 2.094 | –
x2 = 0.8995 | 801.426 | 797.554 | 793.633 | 789.67 | – | 2.971 | 2.62 | 2.327 | 2.068 | –
